Bridge positions count the residues as written; N and C are the ends. Ends that are not written are not given here.
How the values were obtained:
TTX-r sodium channel = assay: Whole-cell patch clamp, TTX-r sodium currents in rat DRG neurons; assay type: cell-based
Method: (§1) The effects of ISTX-I on voltage-gated ion channels were investigated in the dorsal root ganglion (DRG). DRG neurons were held at −80 mV for over 4 min to allow adequate equilibration between the micropipette solution and the cell interior, and then current traces were evoked using a 50 ms step depolarization to −10 mV every second.
Figure 3 Effects of ISTX-I on voltage-gated ion channels in rat DRG neurons. […] (C) Dose-dependent inhibition of ISTX-I on the TTX-s Nav channel (n = 5). (D) Current-voltage (I-V) relationship for the TTX-s Nav channel currents before (solid circles) and after (open circles) the application of 5 μM ISTX-I (n = 5). […]
DRG neurons with a large diameter (>[…]) and those with a relatively small diameter (<[…]) were chosen by measuring TTX-s and TTX-r currents, respectively. […] Potassium, calcium, and sodium currents were recorded in experimental cells using whole-cell patch-clamp recordings at room temperature, which were performed with an HEK EPC10 patch-clamp amplifier. […] Experimental data were acquired and analyzed using the programs patch master and Sigmaplot 9.0 (Sigma, USA). […]
Currents were recorded from experimental cells using whole-cell patch clamptechnique at room temperature (22–25 °C). […] K+ currents were recorded using an internal solution containing the followings (in mM): KCl 140, MgCl2 2.5, HEPES 10, and EGTA 11 (pH 7.2). […]

TTX-s sodium channel = assay: Whole-cell patch clamp, TTX-s sodium currents in rat DRG neurons; assay type: cell-based
Method: as §1
Figure 3 Effects of ISTX-I on voltage-gated ion channels in rat DRG neurons. […] (C) Dose-dependent inhibition of ISTX-I on the TTX-s Nav channel (n = 5). (D) Current-voltage (I-V) relationship for the TTX-s Nav channel currents before (solid circles) and after (open circles) the application of 5 μM ISTX-I (n = 5). (E) Conductance–voltage (G-V) relationship of the TTX-s Nav channel before (solid circles) and after (open circles) treatment with 5 μM ISTX-I (n = 5). (F) Steady-state inactivation of the TTX-s Nav channel currents before (solid circles) and after(open circles) the application of 10 μM ISTX-I (n = 5).
Rat DRG cells were acutely dissociated from adult Sprague-Dawley rats[30]. Briefly, adult rats of either sex with body weights of approximately 200 g were killed by decapitation. The dorsal root ganglia were isolated quickly from the spinal cord and then transferred into Dulbecco’s modified Eagle’s medium (DMEM) containing trypsin I (0.15 mg/mL) and collagenase II (0.3 mg/mL) for incubation with an oscillation frequency of 200 rpm at 37 °C for 20 min. The trypsin inhibitor II-S (1 mg/mL) was added to terminate the reaction. The isolated DRG cells were split into 35 mm culture dishes with DMEM solution containing 10% fetal bovine serum (FBS) and were incubated in a CO2 incubator (5% CO2, 95% air, 37 °C) for 1–4 h before the patch-clamp experiment.
DRG neurons with a large diameter (>[…]) and those with a relatively small diameter (<[…]) were chosen by measuring TTX-s and TTX-r currents, respectively. Meanwhile, TTX (final concentration at 100 nM) was used to separate TTX-r sodium currents from TTX-s sodium currents. Suction pipettes (2.0–4.0 MΩ) were made of borosilicate glass capillary tubes with two-step pulling on a vertical micropipette puller (PC-10, Narishige). Potassium, calcium, and sodium currents were recorded in experimental cells using whole-cell patch-clamp recordings at room temperature, which were performed with an HEK EPC10 patch-clamp amplifier. The P/4 protocol was used to subtract linear capacitive and leakage currents. Experimental data were acquired and analyzed using the programs patch master and Sigmaplot 9.0 (Sigma, USA). All of the data points represent the mean ± SE (n = the number of separate experimental cells examined). Dose-response curves were fitted using the following Hill logistic equation: y = 1 − (1 − fmax)/[1 + ([Tx]/IC50)^n] in which n is an empirical Hill coefficient and fmax is the fraction of current resistant to inhibition at high toxin (Tx) concentrations.
Electrophysiological studies.
Currents were recorded from experimental cells using whole-cell patch clamptechnique at room temperature (22–25 °C). The patch pipettes were fabricated from borosilicate glass tubing using a two-stage vertical microelectrode puller (PC-10, Narishige, Japan). After establishing the whole-cell recording configuration, the resting potential was held at −80 mV for at least 5 min to allow adequate equilibration between the micropipette solution and the cell interior. The micropipette solution of sodium currents for dorsal root ganglion neurons contained (in mM): 105 […]
Ionic currents were filtered at 3 kHz and sampled at 20 kHz on EPC-9 patch clamp amplifier (HEKA, Lambrecht, Germany).
Supplementary Figure legends
Figure S1. Expression, purification and molecular mass determination of recombinant ISTX-I. A: Separation of ISTX-I by Sephadex G-50 gel filtration. […]
protein molecular weight marker; lanes1&2, ISTX-I/pET-32a(+) uninduced and induced cells, respectively. B: The protein peak (indicated by an arrow) from […]

LCSENGDCAADECCVDTVFEGDMVTRSCEKTTGNFTECPGLTPIA (disulfide 2-14, 8-28, 13-38) [ISTX-I]
effect on TTX-r sodium channels (summary) (TTX-r sodium channel): not TTX-r sodium channels | effect on TTX-r sodium channel currents (TTX-r sodium channel; 10 μM ISTX-I, 100 nM TTX to separate TTX-r currents): no effect | effect on TTX-s sodium channels (summary) (TTX-s sodium channel): specifically inhibited TTX-s sodium channels | Inhibition of TTX-s Nav channel currents (TTX-s sodium channel; 1 μM ISTX-I (legend of Fig. 3A)): Inhibition of TTX-s Nav channel currents | reduction of TTX-s sodium channel currents (TTX-s sodium channel; 2 μM ISTX-I, 50 ms step depolarization to −10 mV, held at −80 mV, room temperature): approximately 50% | change of conductance–voltage (G-V) relationship (TTX-s sodium channel; 5 μM ISTX-I, TTX-s, n = 5): No changes | shift of current–voltage (I-V) curve (TTX-s sodium channel; 5 μM ISTX-I, TTX-s, n = 5): No changes | shift of steady-state inactivation curve, hyperpolarized direction (TTX-s sodium channel; 10 μM ISTX-I, TTX-s, n = 5): approximately 11 mV | IC50 (TTX-s sodium channel; Hill equation fit, 50 ms step to −10 mV from −80 mV, mean ± SE, n = 5): 2500 ± 1400 nM

Reference: article PMC4942781, “A sodium channel inhibitor ISTX-I with a novel structure provides a new hint at the evolutionary link between two toxin folds” (Scientific Reports, 2016)
